Data from paper PMC11999280, “Design and screening of novel endosomal escape compounds that enhance functional delivery of oligonucleotides in vitro” (Molecular Therapy. Nucleic Acids, 2025).

Experiments:
Type in all cases: cell-based
[1] = test system: mCherry-GAL9 expressing 16HBE cells; assay: GAL9 recruitment assay, 16HBE; settings: calculated mean from >3 independent exp.
Experimental: (§1) Experiments assessing GAL9 localization as an indicator for endosomal remodeling were performed as previously described[15] using 8× stablemCherry-GAL9 expressing cell lines, SHSY5Y, U2OS, 16HBE, NCI-H358, HuH7, HepG2, HEK293, and HeLa. For mCherry-GAL9 recruitment, 3,000 or 6,500 cells/well (depending upon cell line) were seeded into 384-well CellCarrier Ultra plates 24 h prior to treatment (PerkinElmer, catalog no. 6007558). An Echo 655T acoustic dispenser (Labcyte) was used for EEE dose-response preparation by transferring to the cell plate. At assay endpoints, cells were PBS washed, 4% paraformaldehyde fixed at room temperature […] (VWR, catalog no. 9713.1000), and nuclei stained with PBS +1 μg/mL Hoechst 33342 (Thermo Fisher Scientific, catalog no. H21492).
(§2) Imaging was performed using a spinning-disk confocal microscope (Yokogawa: CV8000) with a ×20w objective (numerical aperture 1.0). Cells and mCherry-GAL9 structure identification and quantification were done using Columbus image-analysis software (PerkinElmer version 2.9.0). Data processing was done using Spotfire (Tibco version 11.4) and Prism (GraphPad version 9.1.0). Image panels were assembled using the FigureJ plugin for FIJI.[43] All mCherry-GAL9 experiments were performed three times (N = 3) with duplicated wells per treatment (n = 2).

[2] = test system: mCherry-GAL9 expressing HEK293 cells; assay: GAL9 recruitment assay, HEK293; settings: calculated mean from >3 independent exp.
Experimental: as §1, §2

[3] = test system: mCherry-GAL9 expressing HeLa cells; assay: GAL9 recruitment assay, HeLa; settings: calculated mean from >3 independent exp.
Experimental: as §1, §2

[4] = test system: mCherry-GAL9 expressing HepG2 cells; assay: GAL9 recruitment assay, HepG2; settings: calculated mean from >3 independent exp.
Experimental: as §1, §2

[5] = test system: mCherry-GAL9 expressing HuH7 cells; assay: GAL9 recruitment assay, HuH7; settings: calculated mean from >3 independent exp.
Experimental: as §1, §2

[6] = test system: mCherry-GAL9 expressing NCI-H358 cells; assay: GAL9 recruitment assay, NCI-H358; settings: calculated mean from >3 independent exp.
Experimental: as §1, §2

[7] = test system: mCherry-GAL9 expressing SHSY5Y cells; assay: GAL9 recruitment assay, SHSY5Y; settings: calculated mean from >3 independent exp.
Experimental: as §1, §2

[8] = test system: mCherry-GAL9 expressing U2OS cells; assay: GAL9 recruitment assay, U2OS; settings: calculated mean from >3 independent exp.
Experimental: as §1, §2

[9] = test system: HeLa_Luc705 cells (pLuc/705 splice-switching reporter); assay: Functional 705-SSO delivery, luciferase splice-switching assay; settings: mean from >3 independent experiments
From the text: Therefore, next, we functionally screened the SSO delivery in the HeLa_Luc705 reporter cell line. HeLa_Luc705 carries a pLuc/705 splice-switching reporter luciferase gene interrupted by a mutated β-globin intron, which creates a preferentially used cryptic 5′ splice site leading to aberrant splicing. Functional SSO delivery masks the cryptic site, redirecting the splicing machinery to the right splicing site, allowing the measurement of luciferase expression (Figure S1).[25]^,[26]^,[27]^,[28] We used SSO transfection with LF2000 as transfection control and the previously published endosomal escape enhancer CMP05 (here, EEE2) as positive control.[15]
For the assessment of functional SSO therapeutics, a HeLa_Luc705 cell line was grown in DMEM media supplemented with 10% fetal bovine serum (FBS). For most treatments, 10,000 cells/well were seeded in a 96-well plate, 24 h pre-incubated with 1- to 2-μM oligonucleotide, and then treated at the described EEE concentration. At 24 h post-treatment, cells were PBS rinsed and collected for further analysis (treatments and incubation times changed accordingly to the experiment design). Luciferase readout was performed as previously described,[15] using a GloMax 96-well plate microplate luminometer (Promega) immediately after adding 30 μL auto-injected luciferin substrate (Promega Firefly Luciferase Assay System; Thermo Scientific, catalog no. 16174) in a white-walled 96-well plate containing 30 μL 0.1% Triton X-100 (Sigma-Aldrich) cell lysed. Photon exposure time and delay were set to 10 and 2 s after injection. LF2000 was used as the transfection reagent control (Thermo Scientific, catalog no. 11668019). For EEE experiments using 1 or 2 μM SSOs, the control was prepared using lipofection with 100–200 nM SSO; this is to avoid complex induced cell toxicity.
705-SSO was purchased from and synthesized by Integrated DNA Technologies. The 705-SSO sequence was previously published, containing 2′-O-methylated bases and only phosphorothioate-saturated backbone linkages were included.[15] The 705-SSO was high-performance liquid chromatography purified, shipped, and stored in IDTE buffer (10 mM Tris, 0.1 mM EDTA).

[10] = HeLa-Luc705 + 2 µM SSO, EEE 2.5 - 3 µM

COc1nn(C2CCN(C(C)C)CC2)cc1Nc1ncc(F)c(-n2ccc3c(C#N)cccc32)n1 [EEE9]
Gal9 response compared to reference ([1]; EEE 0.31 µM): 0.010
Gal9 response compared to reference ([1]; EEE 0.62 µM): 0.013
Gal9 response compared to reference ([1]; EEE 1.25 µM): 0.042
Gal9 response compared to reference ([1]; EEE 2.5 µM): 0.209
Gal9 response compared to reference ([1]; EEE 5 µM): 0.533
Gal9 response compared to reference ([1]; EEE 10 µM): 0.691
Gal9 response compared to reference ([2]; EEE 0.31 µM): 0.028
Gal9 response compared to reference ([2]; EEE 0.62 µM): 0.032
Gal9 response compared to reference ([2]; EEE 1.25 µM): 0.071
Gal9 response compared to reference ([2]; EEE 2.5 µM): 0.396
Gal9 response compared to reference ([2]; EEE 5 µM): 0.712
Gal9 response compared to reference ([2]; EEE 10 µM): 0.639
Gal9 response compared to reference ([3]; EEE 0.31 µM): 0.005
Gal9 response compared to reference ([3]; EEE 0.62 µM): 0.005
Gal9 response compared to reference ([3]; EEE 1.25 µM): 0.007
Gal9 response compared to reference ([3]; EEE 2.5 µM): 0.110
Gal9 response compared to reference ([3]; EEE 5 µM): 0.393
Gal9 response compared to reference ([3]; EEE 10 µM): 0.495
Gal9 response compared to reference ([4]; EEE 0.31 µM): 0.009
Gal9 response compared to reference ([4]; EEE 0.62 µM): 0.009
Gal9 response compared to reference ([4]; EEE 1.25 µM): 0.007
Gal9 response compared to reference ([4]; EEE 2.5 µM): 0.011
Gal9 response compared to reference ([4]; EEE 5 µM): 0.060
Gal9 response compared to reference ([4]; EEE 10 µM): 0.564
Gal9 response compared to reference ([5]; EEE 0.31 µM): 0.012
Gal9 response compared to reference ([5]; EEE 0.62 µM): 0.009
Gal9 response compared to reference ([5]; EEE 1.25 µM): 0.019
Gal9 response compared to reference ([5]; EEE 2.5 µM): 0.083
Gal9 response compared to reference ([5]; EEE 5 µM): 0.220
Gal9 response compared to reference ([5]; EEE 10 µM): 0.366
Gal9 response compared to reference ([6]; EEE 0.31 µM): 0.018
Gal9 response compared to reference ([6]; EEE 0.62 µM): 0.020
Gal9 response compared to reference ([6]; EEE 1.25 µM): 0.031
Gal9 response compared to reference ([6]; EEE 2.5 µM): 0.212
Gal9 response compared to reference ([6]; EEE 5 µM): 0.569
Gal9 response compared to reference ([6]; EEE 10 µM): 0.627
Gal9 response compared to reference ([7]; EEE 0.31 µM): 0.013
Gal9 response compared to reference ([7]; EEE 0.62 µM): 0.016
Gal9 response compared to reference ([7]; EEE 1.25 µM): 0.117
Gal9 response compared to reference ([7]; EEE 2.5 µM): 0.756
Gal9 response compared to reference ([7]; EEE 5 µM): 0.780
Gal9 response compared to reference ([7]; EEE 10 µM): 0.696
Gal9 response compared to reference ([8]; EEE 0.31 µM): 0.012
Gal9 response compared to reference ([8]; EEE 0.62 µM): 0.013
Gal9 response compared to reference ([8]; EEE 1.25 µM): 0.018
Gal9 response compared to reference ([8]; EEE 2.5 µM): 0.055
Gal9 response compared to reference ([8]; EEE 5 µM): 0.254
Gal9 response compared to reference ([8]; EEE 10 µM): 0.502
Luciferase expression compared to reference [9, 10]: 0.692

CCCN1CCC(n2cc(Nc3ncc(F)c(-n4ccc5c(C#N)cccc54)n3)c(OC)n2)CC1 [EEE10]
Gal9 response compared to reference ([1]; EEE 0.31 µM): 0.010
Gal9 response compared to reference ([1]; EEE 0.62 µM): 0.011
Gal9 response compared to reference ([1]; EEE 1.25 µM): 0.028
Gal9 response compared to reference ([1]; EEE 2.5 µM): 0.183
Gal9 response compared to reference ([1]; EEE 5 µM): 0.522
Gal9 response compared to reference ([1]; EEE 10 µM): 0.746
Gal9 response compared to reference ([2]; EEE 0.31 µM): 0.023
Gal9 response compared to reference ([2]; EEE 0.62 µM): 0.026
Gal9 response compared to reference ([2]; EEE 1.25 µM): 0.051
Gal9 response compared to reference ([2]; EEE 2.5 µM): 0.379
Gal9 response compared to reference ([2]; EEE 5 µM): 0.672
Gal9 response compared to reference ([2]; EEE 10 µM): 0.647
Gal9 response compared to reference ([3]; EEE 0.31 µM): 0.005
Gal9 response compared to reference ([3]; EEE 0.62 µM): 0.005
Gal9 response compared to reference ([3]; EEE 1.25 µM): 0.005
Gal9 response compared to reference ([3]; EEE 2.5 µM): 0.145
Gal9 response compared to reference ([3]; EEE 5 µM): 0.463
Gal9 response compared to reference ([3]; EEE 10 µM): 0.588
Gal9 response compared to reference ([4]; EEE 0.31 µM): 0.008
Gal9 response compared to reference ([4]; EEE 0.62 µM): 0.007
Gal9 response compared to reference ([4]; EEE 1.25 µM): 0.007
Gal9 response compared to reference ([4]; EEE 2.5 µM): 0.008
Gal9 response compared to reference ([4]; EEE 5 µM): 0.026
Gal9 response compared to reference ([4]; EEE 10 µM): 0.371
Gal9 response compared to reference ([5]; EEE 0.31 µM): 0.011
Gal9 response compared to reference ([5]; EEE 0.62 µM): 0.009
Gal9 response compared to reference ([5]; EEE 1.25 µM): 0.016
Gal9 response compared to reference ([5]; EEE 2.5 µM): 0.121
Gal9 response compared to reference ([5]; EEE 5 µM): 0.252
Gal9 response compared to reference ([5]; EEE 10 µM): 0.414
Gal9 response compared to reference ([6]; EEE 0.31 µM): 0.017
Gal9 response compared to reference ([6]; EEE 0.62 µM): 0.016
Gal9 response compared to reference ([6]; EEE 1.25 µM): 0.031
Gal9 response compared to reference ([6]; EEE 2.5 µM): 0.194
Gal9 response compared to reference ([6]; EEE 5 µM): 0.633
Gal9 response compared to reference ([6]; EEE 10 µM): 0.662
Gal9 response compared to reference ([7]; EEE 0.31 µM): 0.015
Gal9 response compared to reference ([7]; EEE 0.62 µM): 0.024
Gal9 response compared to reference ([7]; EEE 1.25 µM): 0.123
Gal9 response compared to reference ([7]; EEE 2.5 µM): 0.877
Gal9 response compared to reference ([7]; EEE 5 µM): 0.887
Gal9 response compared to reference ([7]; EEE 10 µM): 0.717
Gal9 response compared to reference ([8]; EEE 0.31 µM): 0.011
Gal9 response compared to reference ([8]; EEE 0.62 µM): 0.012
Gal9 response compared to reference ([8]; EEE 1.25 µM): 0.016
Gal9 response compared to reference ([8]; EEE 2.5 µM): 0.076
Gal9 response compared to reference ([8]; EEE 5 µM): 0.260
Gal9 response compared to reference ([8]; EEE 10 µM): 0.512
Luciferase expression compared to reference [9, 10]: 0.565

COc1nn(C2CCNCC2C)cc1Nc1ncc(F)c(-n2ccc3c(C#N)cccc32)n1 (centres unmarked) [EEE35]
Luciferase expression compared to reference ([9]; HeLa-Luc705 + 1 µM SSO, EEE 0.5 µM): 1.095
Luciferase expression compared to reference ([9]; HeLa-Luc705 + 1 µM SSO, EEE 2 µM): 1.804
Luciferase expression compared to reference ([9]; HeLa-Luc705 + 1 µM SSO, EEE 4 µM): 4.870
Luciferase expression compared to reference ([9]; HeLa-Luc705 + 1 µM SSO, EEE 5 µM): 9.588
Luciferase expression compared to reference ([9]; HeLa-Luc705 + 1 µM SSO, EEE 1-1.25 µM): 1.101
Luciferase expression compared to reference ([9]; HeLa-Luc705 + 1 µM SSO, EEE 2.5 - 3 µM): 2.812
